Experimental data published in ChEMBL document CHEMBL1124716, “Structure and activity of hydrogenated derivatives of (+)-5-methyl-10,11-dihydro-5H-dibenzo[a,d]cyclohepten-5,10-imine (MK-801)” (J Med Chem, 1990).

Tests used:
[1] = Ability to inhibit [3H]-MK-801 binding to N-methyl-D-aspartate glutamate receptor of rat cortical membranes
[2] = N-methyl-D-aspartate glutamate receptor antagonist activity was determined in rat cortical slice preparation; assay type: functional

| SMILES | IC50 [1] [nM] | Kb [2] [nM] |
| --- | --- | --- |
| CN1C2(C)c3ccccc3C1(C)C1CCCCC12 (stereo not given) | 111 |  |
| OCCC12N[C@](O)(Cc3ccccc31)C1CCCCC12 (stereo not given in full) | 396 | 770 |
| CC12N[C@H](Cc3ccccc31)C1=CC=CCC12 (stereo not given in full) | 21 | 270 |
| CN1[C@@H]2Cc3ccccc3[C@@]1(C)C1CCCCC12 (stereo not given in full) | 96 | 290 |
| CC12N[C@@H](C3CCCCC31)[C@H](O)c1ccccc12 (stereo not given in full) | 69 | 250 |
| OCCC12N[C@H](Cc3ccccc31)C1CCCCC12 (stereo not given in full) | 220 | 240 |
| CC12N[C@H](CC3CCCCC31)c1ccccc12 (stereo not given in full) | 188 | 130 |
| CC12N[C@H](Cc3ccccc31)C1=CCCCC12 (stereo not given in full) | 60 | 300 |
| CC12N[C@H](Cc3ccccc31)C1CCCCC12 (stereo not given in full) | 16 | 230 |
| COc1ccc2c(c1)C1(C)N[C@@H]2CC2CCCCC21 (stereo not given in full) | 240 | 310 |
| CC12N[C@H](CC3=C1CCCC3)C1CCCCC12 (stereo not given in full) | 80 | 280 |
| CC12N[C@H](CC3=C1CCCC3)c1ccccc12 | 193 | 270 |
| CC12NC(Cc3ccccc31)c1ccccc12 (single isomer, unassigned) | 30.5 | 130 |
| CC12N[C@H](Cc3ccccc31)C1=C2CC=CC1 | 20 |  |
| CC12N[C@H](CC3CCCCC31)C1CCCCC12 (stereo not given in full) | 35 | 800 |
| CC12NC(Cc3ccccc31)CC1CCCCC12 (stereo not given) | 164 | 250 |
